Experimental data as given in ChEMBL document CHEMBL3885881, “DrugMatrix”.

Organism: Rattus norvegicus
Experiment: DrugMatrix - Regimen: Daily Repeat
Type: toxicity, organism-based, Sprague-Dawley
Parameters: regimen Daily Repeat, gender Male, age 6-8 weeks
Conditions: in vivo, po, route oral GAVAGE, vehicle 100 % WATER; for ABSOLUTE BASOPHIL / ABSOLUTE EOSINOPHIL / ABSOLUTE LYMPHOCYTE / ABSOLUTE MONOCYTE / ABSOLUTE SEGMENTED NEUTROPHIL / BASOPHIL / EOSINOPHIL / ERYTHROCYTE COUNT / HEMATOCRIT / HEMOGLOBIN / LEUKOCYTE COUNT / LYMPHOCYTE / MEAN CORPUSCULAR HEMOGLOBIN / MEAN CORPUSCULAR HEMOGLOBIN CONCENTRATION / MEAN CORPUSCULAR VOLUME / MONOCYTE / NEUTROPHIL / NUCLEATED RED BLOOD CELLS / PLATELET COUNT: tissue Blood; for ALANINE AMINOTRANSFERASE / ALBUMIN / ALKALINE PHOSPHATASE / ASPARTATE AMINOTRANSFERASE / BLOOD UREA NITROGEN / CARBON DIOXIDE / CHLORIDE / CHOLESTEROL / CREATINE PHOSPHOKINASE / CREATININE / GLUCOSE / LACTATE DEHYDROGENASE / LIPASE / PHOSPHORUS / POTASSIUM / SODIUM / TOTAL BILIRUBIN / TOTAL PROTEIN / URIC ACID: tissue Plasma
[1] = 0 mg/kg, 72 h, dose level Control, time 3 day
[2] = 0 mg/kg, 120 h, dose level Control, time 5 day
[3] = 100 mg/kg, 72 h, dose level Low, time 3 day

## NC(=O)c1cccnc1 [NIACINAMIDE]
[1]
  ABSOLUTE BASOPHIL: 0 CELLS/uL
  ABSOLUTE EOSINOPHIL: 46 CELLS/uL
  ABSOLUTE LYMPHOCYTE: 10225.67 CELLS/uL
  ABSOLUTE MONOCYTE: 319.33 CELLS/uL
  ABSOLUTE SEGMENTED NEUTROPHIL: 1242.33 CELLS/uL
  BASOPHIL: 0%
  EOSINOPHIL: 0.33%
  ERYTHROCYTE COUNT: 5.17 x10E6/uL
  HEMATOCRIT: 33.43%
  HEMOGLOBIN: 12.55 G/DL
  LEUKOCYTE COUNT: 11.83 x10E3/uL
  LYMPHOCYTE: 86.5%
  MEAN CORPUSCULAR HEMOGLOBIN: 24.35 pg
  MEAN CORPUSCULAR HEMOGLOBIN CONCENTRATION: 37.57 G/DL
  MEAN CORPUSCULAR VOLUME: 64.8 fL
  MONOCYTE: 2.67%
  NEUTROPHIL: 10.5%
  NUCLEATED RED BLOOD CELLS: 0.17 /100WBC
  PLATELET COUNT: 1026.17 x10E3/uL
  ALANINE AMINOTRANSFERASE: 52.67 u/L
  ALBUMIN: 4.17 G/DL
  ALKALINE PHOSPHATASE: 331 u/L
  ASPARTATE AMINOTRANSFERASE: 92.33 u/L
  BLOOD UREA NITROGEN: 15.33 mg/dL
  CARBON DIOXIDE: 26.17 mmol/L
  CHLORIDE: 103.17 MEQ/L
  CHOLESTEROL: 73.67 mg/dL
  CREATINE PHOSPHOKINASE: 472.83 u/L
  CREATININE: 0.29 mg/dL
  GLUCOSE: 178.5 mg/dL
  LACTATE DEHYDROGENASE: 244.83 u/L
  LIPASE: 10.67 u/L
  PHOSPHORUS: 12.45 mg/dL
  POTASSIUM: 6.35 MEQ/L
  SODIUM: 144.27 MEQ/L
  TOTAL BILIRUBIN: 0.13 mg/dL
  TOTAL PROTEIN: 5.77 G/DL
  URIC ACID: 2.08 mg/dL
[2]
  ABSOLUTE BASOPHIL: 0 CELLS/uL
  ABSOLUTE EOSINOPHIL: 23.5 CELLS/uL
  ABSOLUTE LYMPHOCYTE: 12797.33 CELLS/uL
  ABSOLUTE MONOCYTE: 465.5 CELLS/uL
  ABSOLUTE SEGMENTED NEUTROPHIL: 1313.67 CELLS/uL
  BASOPHIL: 0%
  EOSINOPHIL: 0.17%
  ERYTHROCYTE COUNT: 5.76 x10E6/uL
  HEMATOCRIT: 36.72%
  HEMOGLOBIN: 13.72 G/DL
  LEUKOCYTE COUNT: 14.6 x10E3/uL
  LYMPHOCYTE: 87.5%
  MEAN CORPUSCULAR HEMOGLOBIN: 23.8 pg
  MEAN CORPUSCULAR HEMOGLOBIN CONCENTRATION: 37.35 G/DL
  MEAN CORPUSCULAR VOLUME: 63.72 fL
  MONOCYTE: 3.17%
  NEUTROPHIL: 9.17%
  NUCLEATED RED BLOOD CELLS: 0.33 /100WBC
  PLATELET COUNT: 1270.67 x10E3/uL
  ALANINE AMINOTRANSFERASE: 50.5 u/L
  ALBUMIN: 4.32 G/DL
  ALKALINE PHOSPHATASE: 339.67 u/L
  ASPARTATE AMINOTRANSFERASE: 88 u/L
  BLOOD UREA NITROGEN: 17 mg/dL
  CARBON DIOXIDE: 25 mmol/L
  CHLORIDE: 103.83 MEQ/L
  CHOLESTEROL: 71.33 mg/dL
  CREATINE PHOSPHOKINASE: 281.83 u/L
  CREATININE: 0.26 mg/dL
  GLUCOSE: 161.67 mg/dL
  LACTATE DEHYDROGENASE: 191.17 u/L
  LIPASE: 10.17 u/L
  PHOSPHORUS: 11.72 mg/dL
  POTASSIUM: 6.76 MEQ/L
  SODIUM: 145.17 MEQ/L
  TOTAL BILIRUBIN: 0.2 mg/dL
  TOTAL PROTEIN: 6.15 G/DL
  URIC ACID: 2 mg/dL
[3]
  ABSOLUTE BASOPHIL: 0 CELLS/uL
  ABSOLUTE EOSINOPHIL: 0 CELLS/uL
  ABSOLUTE LYMPHOCYTE: 11521.67 CELLS/uL
  ABSOLUTE MONOCYTE: 217.67 CELLS/uL
  ABSOLUTE SEGMENTED NEUTROPHIL: 794 CELLS/uL
  BASOPHIL: 0%
  EOSINOPHIL: 0%
  ERYTHROCYTE COUNT: 5.92 x10E6/uL
  HEMATOCRIT: 38.23%
  HEMOGLOBIN: 14.33 G/DL
  LEUKOCYTE COUNT: 12.53 x10E3/uL
  LYMPHOCYTE: 92.33%
  MEAN CORPUSCULAR HEMOGLOBIN: 24.2 pg
  MEAN CORPUSCULAR HEMOGLOBIN CONCENTRATION: 37.47 G/DL
  MEAN CORPUSCULAR VOLUME: 64.53 fL
  MONOCYTE: 1.67%
  NEUTROPHIL: 6%
  NUCLEATED RED BLOOD CELLS: 0.33 /100WBC
  PLATELET COUNT: 1202 x10E3/uL
  ALANINE AMINOTRANSFERASE: 47.67 u/L
  ALBUMIN: 4.43 G/DL
  ALKALINE PHOSPHATASE: 308.33 u/L
  ASPARTATE AMINOTRANSFERASE: 89 u/L
  BLOOD UREA NITROGEN: 17.67 mg/dL
  CARBON DIOXIDE: 25.67 mmol/L
  CHLORIDE: 103.67 MEQ/L
  CHOLESTEROL: 87.33 mg/dL
  CREATINE PHOSPHOKINASE: 322 u/L
  CREATININE: 0.26 mg/dL
  GLUCOSE: 158 mg/dL
  LACTATE DEHYDROGENASE: 344 u/L
  LIPASE: 11.67 u/L
  PHOSPHORUS: 13.47 mg/dL
  POTASSIUM: 6.73 MEQ/L
  SODIUM: 147.7 MEQ/L
  TOTAL BILIRUBIN: 0.2 mg/dL
  TOTAL PROTEIN: 6.2 G/DL
  URIC ACID: 2.6 mg/dL
